In patent US20060003965A1, “N-acetyl-d-glucosamine (nag) supplemented food products and beverages” (priority 2002, published 2006):

Legend:
[1] = pH of supplemented tea before and after heating; assay type: physicochemical; details: tea with 5.7 g per quart; for Initial pH: before heating
Procedure: Tea made from Lipton® instant tea mix was used as the basis for incorporation of samples. To prepare the tea, the following recipe was used: 2.69 g instant tea, 5.7 g GLCN or NAG (where applicable) then add water to one quart. Tea was prepared for sensory testing as follows:
Batch 2. Tea+glucosamine (pH 5-6) [GLCN from fungal biomass, see batch 2 Example 1]
Batch 3. Tea+NAG (pH 5-6) (N-Acetyl-D-glucosamine, Catalog # A-102-2, Ferro Pfanstiehl, Waukegan, Ill.)
Batch 4. Tea+glucosamine (pH 5-6) heated to 71° C. for 20 minutes
Batch 5. Tea+glucosamine heated (pH 5-6) to 90° C. for 20 seconds, flash cooled in ice water bath
Batch 6. Tea+glucosamine (pH 5-6) boiled on stove for 5 minutes, flash cooled in ice water bath
Batch 7. Tea+NAG (pH 5-6) heated to 71° C. for 20 minutes
Batch 8. Tea+NAG (pH 5-6) heated to 90° C. for 20 seconds, flash cooled in ice water bath
Batch 9. Tea+NAG (pH 5-6) boiled on stove for 5 minutes, flash cooled in ice water bath

[2] = Stability in simulated gastric fluid (SGF); assay type: in vitro ADME; details: 1 g in SGF with pepsin, pH about 1.2, 37° C., sampled at 0, 5, 15 and 60 minutes
Procedure: To test the availability of NAG in the stomach, a simulated stomach environment was constructed, and a known concentration of NAG was added to simulated gastric fluid (SGF) and maintained at conditions simulating the stomach. If NAG is degraded or derivatized in the stomach, the NAG concentration will decrease. If the concentration of NAG remains the same, it is likely that the NAG is available to the body.
SGF was prepared based on a 1995 United States Pharmacopoeia (USP) monograph. An artificial stomach environment was simulated according to generally accepted practice (see Consumers Union website, 101 Truman Ave., Yonkers, N.Y. 10703-1057). To prepare simulated gastric fluid, 2.0 g of NaCl and 3.2 g of pepsin were dissolved in 7.0 mL of hydrochloric acid (concentrated) and sufficient water to make a 1000 mL solution.
NAG samples were prepared as follows. […]
Before introduction of samples into the SGF, a sample of the SGF was analyzed as a blank, to determine the baseline. Upon addition of the NAG to the SGF, a sample was immediately analyzed to determine the concentration of NAG at time zero. After introduction of NAG into the SGF, samples were pulled and analyzed at 5 minutes, 15 minutes, and 60 minutes to provide a profile of NAG concentration in the simulated stomach, and analyzed for the concentration of NAG.

[3] = NAG recovery following heating, acid extraction method, HPLC; assay type: physicochemical; details: all foods and beverages of Table 14
Procedure: Food samples were homogenized prior to analysis. Where possible, samples were frozen or dried and ground. Baked goods were crumbled and mixed to produce a homogeneous material. Suitable blanks (samples with no added NAG) of each food type were analyzed to assess interferences. Mass changes between unheated ingredient mixtures and baked final products were tracked to permit accurate recovery calculations.
A food or beverage sample as described in the preceding examples containing 5 to 20 mg of N-acetylglucosamine (NAG) was dispersed in 25 g of 0.1 N HCl in a 50-mL polypropylene centrifuge tube and capped tightly. The sample was mixed for 30 seconds using a vortex mixer, then placed in a water bath at 37° C. The sample was removed from the water bath at 15-minute intervals and mixed for 30 seconds on a vortex mixer and then returned to the water bath. This cycle was repeated until the sample had been in the water bath for one hour. After heating, the sample was mixed for 30 seconds on a vortex mixer, then centrifuged for 10 minutes to separate the liquid and solid phases. Fats, oils or lipids in the sample formed a third layer at the top of the tube. […]
NAG recovery was determined using high performance liquid chromatography (HPLC) using a combination of refractive index and UV (195 nm) detection. […]

[4] = heated to 71° C. for 20 minutes
[5] = heated to 90° C. for 20 seconds

| Initial pH [1] | pH after heating ([1]; boiled 5 minutes) | pH after heating [1, 4] | pH after heating [1, 5] | Loss of NAG in simulated gastric fluid [2] | amount of NAG recovered following heating, range over Table 14 samples [3] | SMILES |
| --- | --- | --- | --- | --- | --- | --- |
| 5.09 | 4.87 | 5.13 | 5.00 | – | – | Cl.N[C@H]1C(O)O[C@H](CO)[C@@H](O)[C@@H]1O (stereo partly shown) [Fungal GLCN, glucosamine hydrochloride, reference compound] |
| 5.46 | 5.22 | 5.40 | 5.31 | no significant loss of NAG | 77%-100% | CC(=O)N[C@H]1C(O)O[C@H](CO)[C@@H](O)[C@@H]1O (stereo partly drawn) [NAG, N-Acetyl-D-glucosamine] |
